Data: patent US20170242014A1, “METHODS FOR TREATING SOLID TUMORS AND THE USE OF BIOMARKERS AS A PREDICTOR OF CLINICAL SENSITIVITY TO IMMUNOMODULATORY THERAPIES” (CELGENE CORPORATON, priority 2014, published 2017)
“Also recorded” adds a separate entry of the source. Peptide text beside a SMILES is read from it. * marks the point of attachment. Cbz = O=C(OCc1ccccc1)*

Tests used:
[1] = test system: ZFP91; assay: ZFP91 protein level in HCC cells Focus and JHH4 (western blot / proteomic preparation); type: cell-based; details: for level of ZFP91 in cells treated with cycloheximide (CHX): 100 ug/ml CHX, FIG. 5B; for effect of compound on ZFP91 degradation after knocking down of CRBN: FIG. 5C
[2] = test system: ZFP91; assay: as above; type: cell-based; details: for level of ZFP91 protein: control plate and proteomic preparation, beta-actin control; for effect on ZFP91 degradation induced by Compound A: 10 μM for 1 hour, then 5 μM Compound A for 6 hours, FIG. 5A
Protocol: (§1) Both HCC cells, Focus and JHH4 in 3D setting, were cultured continuously for 15 days treated with either DMSO or Compound A, or were first cultured for about 7 days prior to treatment with either DMSO or Compound A for 24 hours or 72 hours. Cells were harvested and proteins were prepared from the cells for proteomics analysis. The growth of the cells on control plates was also analyzed. In particular, cells were plated in media containing either DMSO or Compound A. Cells were cultured for certain time, and then were harvested onto filter plates. After the plates have dried, scintillation fluid was added to the plates and read on a Top-count reader.
Focus cells were cultured for 18 days either continuously for 18 days in the medium containing DMSO, Compound A, or Compound B, or cultured for 7 days prior to treating with DMSO, Compound A, or Compound B for 11 days. Then cells were harvested and were treated in 200 μl cold cell lysis buffer (1% Triton X-100 from Cell Signaling supplemented with protease inhibitors and phophatase inhibitors from Roche) to generate cell lysate. Proteins from cell lysate were separated by 4-12% nupage gels (Invitrogen) and transferred to nitrocellulose membranes. Immunoblots were then probed with antibodies recognizing CRBN, ZFP91 (LSBio) and β-actin (Li-Cor). Signals were detected with a Li-Cor Odyssey Imager. As shown, the level of ZFP91 reduced in response to treatment with Compound A or Compound B.
(§2) HCC cells from both Focus and JHH4 cell lines in 2D setting treated with Compound A for 6 hours, 24 hours, and 72 hours, and JHH4 cells in 3D setting treated with Compound A for 15 days were also analyzed by western blot. Cells were harvested and were treated in 200 μl cold cell lysis buffer (1% Triton X-100 from Cell Signaling supplemented with protease inhibitors and phophatase inhibitors from Roche) to generate cell lysate. Proteins from cell lysate were separated by 4-12% Nupage gels (Invitrogen) and transferred to nitrocellulose membranes. Immunoblots were then probed with antibodies recognizing CRBN, ZFP91 (LSBio), P-TBK1, and β-actin (Li-Cor). Signals were detected with a Li-Cor Odyssey Imager. As shown, the level of ZFP91 reduced in response to treatment with Compound A for 6 hours, 24 hours, or 72 hours in both cell lines in 2D setting. […] The level of CRBN increased in response to treatment with Compound A for 6 hours, 24 hours, or 72 hours in both cell lines in 2D setting. […] ZFP91 degradation induced by various doses of Compound A for various time periods was also tested in both Focus and JHH4 cells, as shown in FIG. 4C.
HCC cells from both Focus and JHH4 cell lines in 2D setting were first treated with 10 μM MG132 or MLN4924 for 1 hour, and then were treated with 5 μM DMSO or 5 μM Compound A for 6 hours. Cells were harvested and were treated in cell lysis buffer to generate cell lysate. Proteins from cell lysate were separated by gel electrophoresis and transferred to nitrocellulose membranes. Immunoblots were then probed with antibodies recognizing CRBN, ZFP91 (LSBio), and β-actin (Li-Cor). The results were shown in FIG. 5A, and as shown, both 10 μM MG132 or MLN4924 inhibited ZFP91 degradation. MG132 activates c-Jun N-terminal kinase (JNK1), which initiates apoptosis. […] MLN4924 is a NAE1 inhibitor that blocks the activity of Cullin Ring Ligases (CRLs), such as CRL4CRBN.

[3] = test system: ZFP91; assay: ZFP91 protein level in Hep3B cells (western blot); type: cell-based, human; details: for ZFP91 level (western blot): FIG. 6A upper panel; for effect on reduction of ZFP91 level in response to Compound A or Compound B: FIG. 6A lower panel
Protocol: The change of ZFP91 level in response to Compound A or Compound B treatments was also evaluated in human hepatoma Hep3B cell lines. Hep3B cells were treated with Compound A or Compound B, and cells were harvested and treated in lysis buffer to generate cell lysate. Proteins from cell lysate were separated by electrophoresis gel and transferred to nitrocellulose membranes. Immunoblots were then probed with antibodies recognizing CRBN, ZFP91, and β-actin. Signals were detected with a Li-Cor Odyssey Imager. The results were shown in the upper panel of FIG. 6A. […] Thus, ZFP91 may be degraded in response treatment compounds regardless of growth response of the cells to the treatment compounds.

[4] = test system: Hep3B cells; assay: Growth response of Hep3B cells to treatment compounds; type: cell-based, human; details: FIG. 6B
[5] = test system: P-TBK1; assay: P-TBK1 level by western blot in HCC cells; type: cell-based; details: 3D setting; Compound A treatment
Protocol: as §2

[6] = test system: CRBN; assay: CRBN protein level in HCC cells Focus and JHH4 (western blot / proteomic preparation); type: cell-based; details: for level of CRBN (western blot): FIG. 4B; for level of CRBN protein: control plate and proteomic preparation
Protocol: as §2, with “Both HCC cells, Focus and JHH4 in 3D setting, were cultured continuously for 15 days treated with either DMSO or Compound A, or were first cultured for about 7 days prior to treatment with either DMSO or Compound A for 24 hours or 72 hours. Cells were harvested and proteins were prepared from the cells for proteomics analysis. The growth of the cells on control plates was also analyzed. In particular, cells were plated in media containing either DMSO or Compound A. Cells were cultured for certain time, and then were harvested onto filter plates. After the plates have dried, scintillation fluid was added to the plates and read on a Top-count reader. HCC” for “HCC”

[7] = test system: ZFP91; assay: ZFP91 protein level in glioblastoma cell lines U87 and SNB19 (western blot); type: cell-based, human; details: FIG. 7A
Protocol: The change of ZFP91 level in response to treatment compounds was evaluated in other solid tumor cell lines, e.g., giloblastoma (GBM) cell lines. […] Proteins from cell lysate were separated by electrophoresis gel and transferred to nitrocellulose membranes. Immunoblots were then probed with antibodies recognizing ZFP91 and β-actin. Signals were detected with a Li-Cor Odyssey Imager.

[8] = test system: JHH4 cells; assay: Colony growth on control plates, 3D culture; type: cell-based; details: JHH4, 3D, FIG. 3B
[9] = test system: Focus cells; assay: Colony growth on control plates, 3D culture; type: cell-based; details: FIG. 2B
Protocol: as §1

[10] = test system: U87 tumor; assay: U87 xenograft tumor growth; type: in vivo; details: FIG. 7B left panel
[11] = test system: ZFP91; assay: Immunostaining of ZFP91 in U87 xenograft tissue; type: in vivo; details: FIG. 7B right panel
[12] = test system: HCC cell lines (excised xenograft tumors of HAK-1AJ and Focus); assay: Proteomic screening (TMT) of HCC cell lines after Compound A treatment; type: cell-based
Protocol: HCC cell lines (excised xenograft tumors of HAK-1AJ and Focus) were treated with either with DMSO, or Compound A for either once (single) or multiple times. Cells were harvested at 24 or 72 hours time points, and proteins were fractionated using a basic pH reverse gradient method. Fractionated samples were labeled using a Tandem Mass Tag (TMT) method. Relative abundance was calculated.

[13] = test system: NF-κB activation; details: read-out: IC50 of inhibition of NF-κB activation; cited from earlier work
[14] = Focus cells, 18 days continuous or 7 days culture then 11 days treatment, FIG. 4A
[15] = proteomic screening vs DMSO, harvested at 24 or 72 hours

SMILES: O=C1CCC(N2Cc3c(OCc4ccc(CN5CCOCC5)cc4)cccc3C2=O)C(=O)N1 (centres unmarked) [Compound B, 3-[4-(4-Morpholin-4-ylmethyl-benzyloxy)-1-oxo-1,3-dihydro-isoindol-2-yl]-piperidine-2,6-dione]
- effect of compound on ZFP91 protein level after knocking down of CRBN ([1]; CRBN knock-down, cell line not stated, FIG. 5D): reversed
- level of ZFP91 (western blot) [2, 14]: reduced
- ZFP91 level (western blot) [3]: down-regulated
- sensitivity of Hep3B cells (growth response) [4]: sensitive

SMILES: Cc1nc2cccc(N)c2c(=O)n1C1CCC(=O)NC1=O (centres unmarked) [Compound A, 3-(5-amino-2-methyl-4-oxo-4H-quinazolin-3-yl)-piperidine-2,6-dione]
- P-TBK1 level (western blot) [5]: upregulated
- level of CRBN (western blot) ([6]; Focus, 2D setting, 6 hours, 24 hours, or 72 hours): increased
- level of CRBN protein ([6]; Focus, 3D, FIG. 2A): increased
- level of CRBN (western blot) ([6]; JHH4, 2D setting, 6 hours, 24 hours, or 72 hours): increased
- level of CRBN (western blot) ([6]; JHH4, 3D setting, 15 days): increased
- level of CRBN protein ([6]; JHH4, 3D, FIG. 3A): increased
- ZFP91 level (western blot) ([7]; SNB19 cells): down-regulated
- ZFP91 level (western blot) ([7]; U87 cells): down-regulated
- colony number [8]: reduced
- total colony area [8]: reduced
- colony number [9]: reduced
- total colony area [9]: reduced
- U87 tumor growth ([10]; 3 mg/kg qd): significantly inhibits
- U87 tumor growth ([10]; 30 mg/kg qd): significantly inhibits
- ZFP91 in U87 xenograft tissue (immunostaining) [11]: degraded
- level of ZFP91 in cells treated with cycloheximide (CHX) ([1]; Focus): decreased
- effect of compound on ZFP91 degradation after knocking down of CRBN ([1]; Focus, CRBN knock-down): reversed
- level of ZFP91 in cells treated with cycloheximide (CHX) ([1]; JHH4): decreased
- effect of compound on ZFP91 degradation after knocking down of CRBN ([1]; JHH4, CRBN knock-down): reversed
- level of ZFP91 (western blot) [2, 14]: reduced
- level of ZFP91 (western blot) ([2]; Focus, 2D setting, 6 hours, 24 hours, or 72 hours, FIG. 4B): reduced
- level of ZFP91 protein ([2]; Focus, 3D, FIG. 2A): reduced
- level of ZFP91 (western blot) ([2]; JHH4, 2D setting, 6 hours, 24 hours, or 72 hours, FIG. 4B): reduced
- level of ZFP91 (western blot) ([2]; JHH4, 3D setting, 15 days, FIG. 4B): reduced
- level of ZFP91 protein ([2]; JHH4, 3D, FIG. 3A): reduced
- ZFP91 level (western blot) [3]: down-regulated
- proteins commonly differentially abundant in both Focus and HAK-1AJ cell lines ([12]; 24 hours after treatment, FIG. 1C): WIBG, KAT1, Nestin, PARP4, and MVP
- proteins downregulated in response to Compound A treatment [12, 15]: MVP, PARP4, ZFP91, and ZNF198
- proteins upregulated in response to Compound A treatment [12, 15]: Nestin, KAT1/CCBL1, and WIBG
- sensitivity of Hep3B cells (growth response) [4]: not

SMILES: NS(=O)(=O)OC[C@@H]1C[C@@H](n2ccc3c(N[C@H]4CCc5ccccc54)ncnc32)C[C@@H]1O [MLN4924, reference compound]
- effect on reduction of ZFP91 level in response to treatment compounds ([7]; SNB19 cells): blocked
- effect on reduction of ZFP91 level in response to treatment compounds ([7]; U87 cells): blocked
- effect on ZFP91 degradation induced by Compound A ([1]; JHH4, 2D, 10 μM for 1 hour, then 5 μM Compound A for 6 hours, FIG. 5A, listed as MLN): block
- effect on ZFP91 degradation induced by Compound A ([2]; Focus, 2D): inhibited
- effect on ZFP91 degradation induced by Compound A ([2]; Focus, 2D, listed as MLN): block
- effect on ZFP91 degradation induced by Compound A ([2]; JHH4, 2D): inhibited
- effect on reduction of ZFP91 level in response to Compound A or Compound B [3]: blocked

SMILES: CC(C)C[C@@H](C=O)NC(=O)[C@H](CC(C)C)NC(=O)[C@H](CC(C)C)NC(=O)OCc1ccccc1 [MG132, reference compound] (Cbz-Leu-Leu-Leu-aldehyde)
- effect on reduction of ZFP91 level in response to treatment compounds ([7]; SNB19 cells): blocked
- effect on reduction of ZFP91 level in response to treatment compounds ([7]; U87 cells): blocked
- IC50 [13]: 3000 nM
- effect on ZFP91 degradation induced by Compound A ([2]; Focus, 2D): block; also recorded: inhibited
- effect on ZFP91 degradation induced by Compound A ([2]; JHH4, 2D): block; also recorded: inhibited
- effect on reduction of ZFP91 level in response to Compound A or Compound B [3]: blocked
